In assay [1] the target is T1, NAD-dependent protein deacetylase sirtuin-2 (Homo sapiens, UniProt Q8IXJ6).
T1 sequence (Q8IXJ6 whole entry): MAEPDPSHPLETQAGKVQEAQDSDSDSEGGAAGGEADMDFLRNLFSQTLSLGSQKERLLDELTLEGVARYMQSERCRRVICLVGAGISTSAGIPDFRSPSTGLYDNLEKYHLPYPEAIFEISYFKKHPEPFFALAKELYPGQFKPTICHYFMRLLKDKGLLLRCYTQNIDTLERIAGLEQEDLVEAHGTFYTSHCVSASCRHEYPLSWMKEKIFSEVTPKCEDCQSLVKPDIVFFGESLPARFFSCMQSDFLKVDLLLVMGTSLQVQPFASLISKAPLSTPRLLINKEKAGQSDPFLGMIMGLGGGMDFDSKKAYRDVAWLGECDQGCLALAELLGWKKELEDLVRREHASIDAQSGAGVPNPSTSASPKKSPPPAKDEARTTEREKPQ
The experiment in a line: Inhibition of recombinant SIRT2 (unknown origin) using FAM-labeled RHKK(Ac) LM peptide as substrate incubated for 60 mins by electrophoretic mobility shift assay.

A further assay relates to HeLa. Kind of assay: Antiproliferative activity against human HeLa cells assessed as reduction in cell proliferation measured after 3 days by MTT assay. To be noted: 72 h. The class given is functional, cell-based. For orientation: Formazan colour is commonly taken as a measure of viable cells.
A further assay deals with HL-60. Kind of assay: Antiproliferative activity against human HL-60 cells assessed as reduction in cell proliferation measured after 3 days by MTT assay. The class given is functional, cell-based. Conditions: HL-60, 72 h.
The next assay has as its system MT2. Kind of assay: Cytotoxicity against human MT2 cells assessed as reduction in cell proliferation measured after 3 days by MTT assay. The assay is classed as cell-based. Conditions: MT2, 72 h.
A further assay has as its system MCF7. The experiment in a line: Antiproliferative activity against human MCF7 cells assessed as reduction in cell proliferation measured after 3 days by MTT assay. The assay is classed as functional, cell-based. Conditions: MCF7, 72 h.
The test system of a further assay is K562. The experiment in a line: Antiproliferative activity against human K562 cells assessed as reduction in cell proliferation measured after 3 days by MTT assay. The class given is functional, cell-based. To be noted: K562, 72 h.

This passage reports IC50 results from ChEMBL document CHEMBL4699459, “Structure activity study of S-trityl-cysteamine dimethylaminopyridine derivatives as SIRT2 inhibitors: Improvement of SIRT2 binding and inhibition” (Bioorg Med Chem Lett, 2020).

What is called IC50 is the concentration that gives 50% inhibition.

`CN(C)c1ccnc(CNCCS)c1`: the IC50 in assay [1] was greater than 100 µM.
Consider `c1ccc(C(SCCNCc2ccccn2)(c2ccccc2)c2ccccc2)cc1`, for which the IC50 in assay [1] came to 39.3 µM; in the assay with HeLa it was 4.15 µM; in the assay with HL-60, 5.76 µM; with MT2, 3.56 µM; with MCF7 it was 7.44 µM; in the assay with K562, 3.15 µM.
Take `CN(C)c1ccnc(CNCCSC(C)(C)C)c1`: in assay [1], the IC50 is greater than 100 µM.
`CCN(CC)c1ccnc(CNCCSC(c2ccccc2)(c2ccccc2)c2ccccc2)c1`: the IC50 in assay [1] was determined as 7.6 µM; with HeLa, 1.32 µM; with HL-60, 2.68 µM; in the assay with MT2, 2.22 µM; in the assay on MCF7 it was 4.97 µM; in the assay with K562, 1.11 µM.
For `COC(=O)[C@@H](CSC(c1ccccc1)(c1ccccc1)c1ccccc1)NCc1cc(N(C)C)ccn1`, the IC50 was 10.8 µM in assay [1]; 1.56 µM in the assay with HeLa; 0.45 µM in the assay on HL-60; 3.15 µM in the assay with MT2; 3.16 µM with MCF7; 2.17 µM in the assay on K562.
Consider `CN(C)c1cccc(CNCCSC(c2ccccc2)(c2ccccc2)c2ccccc2)c1`, for which the concentration for half-maximal inhibition (IC50) in assay [1] was greater than 100 µM.
For the molecule `CN(C)c1ccnc(CNCCSC(c2ccccc2)(c2ccccc2)c2ccccc2)c1`, the concentration for half-maximal inhibition (IC50) in assay [1] was 7.5 µM; in the assay with HeLa, 2.25 µM; in the assay on HL-60 it was 1.87 µM; in the assay on MT2 it was 3.16 µM; in the assay with MCF7, 5.1 µM; in the assay with K562, 2.44 µM.
In the case of `CN(C)c1ccc(CNCCSC(c2ccccc2)(c2ccccc2)c2ccccc2)c(Cl)c1`, in assay [1], the IC50 is greater than 100 µM.
Same read-out and setting: with `NCCSC(c1ccccc1)(c1ccccc1)c1ccccc1` the figure was greater than 100 µM; with `CN(C)c1ccnc(C(=O)NCCSC(c2ccccc2)(c2ccccc2)c2ccccc2)c1`, greater than 100 µM.
Take `COc1cc(N(C)C)ccc1CNCCSC(c1ccccc1)(c1ccccc1)c1ccccc1`: the IC50 in assay [1] is greater than 100 µM.
